Measured values published in article PMC5054527, “Mechanism of high affinity inhibition of the human urate transporter URAT1” (Scientific Reports, 2016).
Residue numbers refer to the chain shown, from its start. Read-outs that look alike come from different tables or passages of the source.

Assays:
[1] = target: T1, r-T26V rURAT1 point mutant (Rattus norvegicus, UniProt Q3ZAV1, T26V); assay: URAT1 uric acid transport activity assay; type: cell-based
T1 sequence (Q3ZAV1 1-553 T26V): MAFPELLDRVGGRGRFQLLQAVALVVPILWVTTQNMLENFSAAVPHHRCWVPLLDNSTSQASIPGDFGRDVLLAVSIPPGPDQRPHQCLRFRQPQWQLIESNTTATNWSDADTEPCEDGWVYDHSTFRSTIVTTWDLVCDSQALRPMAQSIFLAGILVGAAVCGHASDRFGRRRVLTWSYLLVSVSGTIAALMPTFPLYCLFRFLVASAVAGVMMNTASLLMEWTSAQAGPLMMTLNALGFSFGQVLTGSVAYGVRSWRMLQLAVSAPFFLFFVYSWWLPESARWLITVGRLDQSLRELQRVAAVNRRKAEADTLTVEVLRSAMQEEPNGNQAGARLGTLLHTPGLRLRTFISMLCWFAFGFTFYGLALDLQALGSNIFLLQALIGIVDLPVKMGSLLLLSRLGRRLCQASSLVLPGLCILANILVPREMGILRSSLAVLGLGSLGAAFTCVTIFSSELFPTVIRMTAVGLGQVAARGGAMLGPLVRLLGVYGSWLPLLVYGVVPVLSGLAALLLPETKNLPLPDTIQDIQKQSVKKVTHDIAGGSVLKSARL
Description: (§1) hURAT1 (GenBank BC053348.1) and rURAT1 (NCBI NM_001034943.1) genes were purchased from Origene Technologies, Inc. and subcloned into pCMV6/neo using NotI, creating pCMV6/neo-hURAT1 and pCMV6/neo-rURAT1. Mutants were produced by polymerase chain reaction (PCR) or site-directed mutagenesis using the QuikChange Lightning Multi Site-Directed Mutagenesis Kit (Agilent Technologies). […] Detailed methods are provided in Supplementary Methods, and primers are listed in Supplementary Table 1. […] Residues in rURAT1 and hOAT1 that correspond to the residues in hURAT1 were identified from aligned protein sequences (Supplementary Fig. 1)[50].
(§2) DNA (10 μg) was mixed with 30 μl of DreamFect Gold (Boca Scientific) in 2 ml OptiMem (Life Technologies). After 20 minutes, 18 ml of media containing 2 × 10^7 cells in suspension was added and mixed, and 200 μl per well were plated onto white clear-bottomed poly-D-lysine coated 96-well plates (BD Biosciences). The cells were assayed the following day.
(§3) Compounds were serially diluted into assay buffer and added to the cells for 5 minutes prior to addition of radiolabelled uric acid substrate. URAT1-expressing cells were incubated with 100 μM ^14C-uric acid for 10 minutes. […] Each treatment was measured in triplicate.
(§4) Unlabelled uric acid was prepared at a 20 mM stock just prior to use in a solution containing 20 mM dibasic potassium phosphate and 20 mM potassium hydroxide.
(§5) Nonlinear regression analyses using GraphPad Prism software were used to calculate the potency of URAT1 inhibitors (IC50 values) from log (inhibitor) versus response - variable slope (four parameters) equations. Statistical significance was assessed using Student’s unpaired t-tests.

[2] = target: T2, r-V474M rURAT1 point mutant (Rattus norvegicus, UniProt Q3ZAV1, V474M); assay: URAT1 uric acid transport activity assay; type: cell-based
T2 construct: expressed in transfected cells; host or cells: HEK-293T
T2 sequence (Q3ZAV1 1-553 V474M): T1 sequence (Q3ZAV1 1-553 T26V) with V26T, V474M
Description: as §1, §2, §3, §4, §5

human URAT1 = target: T3, human URAT1 (Homo sapiens, UniProt Q96S37); assay: ^3H-RDEA3170 URAT1 membrane binding assay; settings: human URAT1 membranes; 10 nM ^3H-RDEA3170
T3 construct: hURAT1 and rURAT1 are 553 amino acid proteins with 12 transmembrane segments; expressed in transfected cells; host or cells: URAT1-transfected cells (HEK-293T per the transfection section)
T3 sequence (Q96S37 1-553): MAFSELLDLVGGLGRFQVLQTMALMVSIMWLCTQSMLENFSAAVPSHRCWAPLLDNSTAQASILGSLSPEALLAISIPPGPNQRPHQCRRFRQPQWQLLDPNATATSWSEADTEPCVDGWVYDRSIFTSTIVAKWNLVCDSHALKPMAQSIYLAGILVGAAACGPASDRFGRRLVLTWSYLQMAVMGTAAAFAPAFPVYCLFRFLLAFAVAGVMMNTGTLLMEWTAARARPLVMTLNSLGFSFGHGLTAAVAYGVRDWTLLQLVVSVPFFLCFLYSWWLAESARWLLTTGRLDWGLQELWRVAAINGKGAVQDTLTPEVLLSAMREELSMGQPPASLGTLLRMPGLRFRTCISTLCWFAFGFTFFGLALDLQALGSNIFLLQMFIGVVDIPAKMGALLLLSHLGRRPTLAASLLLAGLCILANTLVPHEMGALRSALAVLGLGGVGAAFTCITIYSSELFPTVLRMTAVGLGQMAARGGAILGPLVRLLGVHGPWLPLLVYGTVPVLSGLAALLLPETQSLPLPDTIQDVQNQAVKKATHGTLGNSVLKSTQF
Description: Membranes were prepared from URAT1-transfected cells. […] Cells were lysed with 100 strokes in a dounce homogenizer using a tight-fitting “B” stem. Lysates were transferred to 1.5 ml Eppendorf tubes and centrifuged at 250 rcf for 5 minutes at 2 °C, and supernatants were transferred to fresh tubes and centrifuged again at 18,000 rcf for 20 minutes at 2 °C. The pellets (membrane fractions) were resuspended in 1 ml of ice-cold binding buffer containing protease inhibitors and frozen at −80 °C. Protein was measured using the Bio-Rad protein assay dye reagent concentrate.
To initiate binding, membranes at 2.5 μg total protein were incubated with ^3H-RDEA3170 for 30 minutes at room temperature. […] The plates were then subjected to scintillation counting. All samples were assayed in triplicate.

| SMILES | IC50 [1] [µM] | IC50 [2] [µM] | displacement of ^3H-RDEA3170 binding to hURAT1 (human URAT1) | IC50 ([1]; r-T26V, MES pH 5.5, 100 μM 14C-uric acid, read-out: IC50 (uric acid transport)) [µM] | IC50 ([2]; r-V474M, MES pH 5.5, 100 μM 14C-uric acid, read-out: IC50 (uric acid transport)) [µM] | IC50 ([1]; r-T26V, HEPES pH 7.3, 100 μM 14C-uric acid, read-out: IC50 (uric acid transport)) [µM] | IC50 ([2]; r-V474M, HEPES pH 7.3, 100 μM 14C-uric acid, read-out: IC50 (uric acid transport)) [µM] |
| --- | --- | --- | --- | --- | --- | --- | --- |
| CCc1oc2ccccc2c1C(=O)c1cc(Br)c(O)c(Br)c1 [benzbromarone] | 26 ± 4.4 | 17 ± 2.2 | displace binding of the probe | – | – | – | – |
| O=C(O)CSc1nnc(Br)n1-c1ccc(C2CC2)c2ccccc12 [lesinurad, 2-((5-bromo-4-(4-cyclopropylnaphthalen-1-yl)-4H-1,2,4-triazol-3-yl)thio)acetic acid] | – | – | displace binding of the probe | 76 ± 2.3 | 84 ± 3.2 | – | – |
| O=C1C(CC[S+]([O-])c2ccccc2)C(=O)N(c2ccccc2)N1c1ccccc1 (stereo not drawn) [sulfinpyrazone] | – | – | displace binding of the probe | – | – | 655 ± 191 | 732 ± 102 |
